This passage reports GI50 and TGI results from PubChem BioAssay (NCI).

SMILES strings stand for the structures.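 1) Cells in 96-well plates. 2) Compound, 48 h, 5 concentrations. 3) Linear interpolation between surrounding doses. 4) Unreached endpoint = highest concentration. GI50 = concentration required for 50% inhibition of growth. Definition used: TGI = concentration required for complete inhibition of growth.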

Test systems include ACHN renal; COLO 205 colon; HCC-2998 colon; HL-60(TB) leukemia; NCI-H460 lung; SF-268 CNS; SF-295 CNS; SK-OV-3 ovarian; T-47D breast; TK-10 renal.
What all share (experiment): NCI tumour cell line growth inhibition, 48 h

`Cc1cc(N(CCNc2ccnc3cc(Cl)ccc23)Cc2ccc3c(c2)OCO3)nc(N2CCN(C)CC2)n1`: the GI50 in the assay with ACHN renal is 2.52 µM; in the assay on COLO 205 colon, 1.86 µM; with HCC-2998 colon, 2.12 µM; with HL-60(TB) leukemia it was 2.06 µM; with NCI-H460 lung, 2.65 µM; in the assay on SF-268 CNS, 2.42 µM. Moreover, the GI50 in the assay on SF-295 CNS was 1.72 µM; with SK-OV-3 ovarian, 9.55 µM; in the assay with T-47D breast it was 2.05 µM; with TK-10 renal, 1.81 µM. In addition, the TGI was determined as 5.78 µM in the assay with ACHN renal; 3.69 µM in the assay with COLO 205 colon; 4.88 µM in the assay on HCC-2998 colon; 4.27 µM in the assay with HL-60(TB) leukemia; 7.86 µM in the assay with NCI-H460 lung; 7.89 µM in the assay with SF-268 CNS. The TGI is 3.42 µM in the assay with SF-295 CNS, 21.6 µM with SK-OV-3 ovarian, 4.64 µM in the assay on T-47D breast and 3.61 µM in the assay on TK-10 renal.

Consider `N#Cc1ccc(-c2nc(C#N)c(N)o2)cc1`, for which the TGI in the assay with ACHN renal, in the assay on COLO 205 colon, in the assay on HCC-2998 colon, with HL-60(TB) leukemia, with NCI-H460 lung and in the assay with SF-268 CNS was more than 10 µM each time. Besides, the TGI in the assay on SF-295 CNS, in the assay with SK-OV-3 ovarian, in the assay on T-47D breast and in the assay on TK-10 renal was more than 10 µM throughout.
